Measured values: the NIST ThermoML archive (doi:10.1021/je400835u)

Assay: xn = mol fraction of the nth substance listed
Conditions: 100 kPa, Liquid; for viscosity: Falling or rolling sphere viscometry; for mass density: Vibrating tube method

CCCCC1CCCCC1 [butylcyclohexane] + CCCCCCCCCCCC
Conditions	mass density, 293.15 K [kg/m3]	mass density, 298.15 K [kg/m3]	mass density, 303.15 K [kg/m3]	mass density, 308.15 K [kg/m3]	mass density, 313.15 K [kg/m3]	viscosity, 293.15 K [mPa·s]	viscosity, 298.15 K [mPa·s]	viscosity, 303.15 K [mPa·s]	viscosity, 308.15 K [mPa·s]	viscosity, 313.15 K [mPa·s]
x1 = 0.0511	750.97	747.36	743.73	740.1	736.45	1.492	1.369	1.258	1.157	1.07
x1 = 0.0989	752.88	749.26	745.63	741.99	738.34	1.486	1.363	1.251	1.152	1.067
x1 = 0.2004	757.06	753.44	749.8	746.15	742.5	1.467	1.346	1.238	1.14	1.056
x1 = 0.3002	761.38	757.75	754.1	750.45	746.78	1.45	1.331	1.224	1.128	1.047
x1 = 0.4012	765.97	762.34	758.68	755.02	751.35	1.431	1.314	1.21	1.117	1.036
x1 = 0.5005	770.74	767.1	763.43	759.76	756.07	1.415	1.298	1.196	1.106	1.026
x1 = 0.6006	775.82	772.16	768.48	764.8	761.1	1.393	1.279	1.18	1.091	1.013
x1 = 0.7008	781.21	777.53	773.83	770.13	766.43	1.373	1.262	1.165	1.078	1.002
x1 = 0.7998	786.85	783.16	779.45	775.73	771.99	1.351	1.244	1.15	1.064	0.99
x1 = 0.8996	792.92	789.21	785.47	781.73	777.98	1.331	1.226	1.134	1.049	0.978
x1 = 0.9494	796.1	792.38	788.64	784.9	781.13	1.32	1.216	1.126	1.04	0.969
x1 = 1	799.44	795.7	791.95	788.19	784.41	1.296	1.196	1.107	1.027	0.958
